Data reported in patent US20220401438A1, “CANCER THERAPEUTIC METHODS” (University Health Network, priority 2021, published 2022).

What was measured:
[1] = tested on: cancer cell lines not having gene mutations identified by the CRISPR screen analysis; test: In vitro combination of itraconazole with lysosome targeting agents; assay type: cell-based; details: for sensitivity of cell lines to itraconazole when treated with the agent: cell lines without the CRISPR-identified mutations
[2] = tested on: TOV1946 stably expressing GFP conjugated TFEB; test: TFEB nuclear translocation; assay type: cell-based; details: CQ 10 μM alone or with Itra 5 μM
Method: FIGS. 11A-B. FIG. 11A) Top, analysis of lysosomal pattern by LAMP1 immunofluorescence and relative quantification in TOV21g treated with Itra 5 μM (15)+/−CQ 5 μM (CQ5). Bottom, Analysis of lysosomal function and relative quantification in TOV21g treated as above. FIG. 11B) Analysis and quantification of TFEB nuclear translocation in TOV1946 stably expressing GFP conjugated TFEB and treated with Itra 5 μM (5) +/−CQ 10 μM (CQ10).
Member of the microphtalmia (MiT) family (TFEB, […], TFE3) are transcription factors activated in starvation or lysosomal dysfunction conditions. Once activated, they translocate to the nucleus where they promote the expression of a network of genes related to lysosomal function and biogenesis^50.

[3] = Tissue pharmacokinetic analyses (HPLC-MS/MS) of tumour biopsies; assay type: in vivo, human; details: for intratumor concentration (highest): patient HYDRA-005, DL1, on-treatment biopsy; for estimated tissue concentration: patient HYDRA-005 for Itra, assuming 1 μg of tissue corresponds to 1 μl; for detection in tumour biopsies: post-treatment samples, ten patients, none of the pre-treatment samples
Method: Tumour assessment occurred every 8 weeks (+/−1 week) by CT scan. Toxicity was assessed by Common Terminology Criteria (CTCAE) version 4.0. Pre- and on treatment biopsies (on cycle 1, day 8 to 14) were mandatory. Tumour Itra and HCQ concentrations were determined by a HPLC-MS/MS method with itraconazole-D9 and hydroxychloroquine-D4 as the internal standard. The HPLC system was interfaced to a SCIEX TRIPLE QUAD 6500+ mass spectrometer operating in the […] electrospray ionization mode. Data collection, peak integration, and calculation were performed using Analyst® 1.7 software.

With `CO/C1=C\C(C)=C\[C@@H](C)[C@@H](O)[C@@H](C)C/C(C)=C/C=C/[C@H](OC)[C@@H]([C@@H](C)[C@@H](O)[C@H](C)[C@@]2(O)C[C@@H](O)[C@H](C)[C@@H](C(C)C)O2)OC1=O` [Bafilomycin A] the “sensitivity of cell lines to itraconazole when treated with the agent” value [1] was “increased sensitivity to itraconazole” and the “effect of Itra combined with lysosome targeting agent” value ([1]; data not shown) was “combined effect”.
For `CCN(CC)CCCC(C)Nc1ccnc2cc(Cl)ccc12` (stereo not shown) [CQ, chloroquine], the “TFEB nuclear translocation, cells” value [2] was “about 50%”.
In the case of `CCN(CCO)CCCC(C)Nc1ccnc2cc(Cl)ccc12` (stereo not shown) [HCQ, hydroxychloroquine], the “intratumor concentration (highest)” value [3] is reported as 3.5 ng/mg of tissue, the estimated tissue concentration [3] is reported as 5 to 10 µM and the “detection in tumour biopsies” value [3] is reported as “detectable in all patients”.
With `CCC(C)n1ncn(-c2ccc(N3CCN(c4ccc(OCC5COC(Cn6cncn6)(c6ccc(Cl)cc6Cl)O5)cc4)CC3)cc2)c1=O` (stereo not shown) [Itra, Itraconazole] the “intratumor concentration (highest)” value [3] was 0.745 ng/mg of tissue, the estimated tissue concentration [3] was no more than 1 µM and the “detection in tumour biopsies” value [3] was “detectable in all patients”.
For `CC/C(=C(\c1ccccc1)c1ccc(OCCN(C)C)cc1)c1ccccc1` [tamoxifen], the “sensitivity of cell lines to itraconazole when treated with the agent” value [1] was “increased sensitivity to itraconazole”.
